# What was measured:
# [1] = system: OVCAR-3 cells; assay: Cell Titer-Glo anti-proliferation, OVCAR-3 cells; type: cell-based; details: 3 days, read-out: Anti-proliferative activity OVCAR-3 (IC50 class)
# Description: (§1) A. Evaluation of the Anti-Proliferative Effect of Compounds on BxPC3, HT-29 and OVCAR-3 Cells by the Cell Titer-Glo Method
# (§2) Compound solutions of different concentration gradients were prepared. […] The cell growth group without compound was used as a positive control (maximum signal control) and the medium was used as a negative control (minimum signal control), while ensuring that the final level of DMSO in each reaction well was 0.2%. After removing the medium from the 384-well plate, 25 μl of the configured compound at different concentrations was transferred into the well plate and the compound and cells were incubated in the cell incubator at 37° C. with 5% CO2 for 3 days.
# (§3) The 384-well plates were removed from the cell incubator and allowed to equilibrate for 1 h to room temperature. 25 μl of Cell Titer-Glo assay was added to each well, lysed on a shaker for 2 min and then read out (Luminescence) using a BMG PHERAStar after 10 min incubation. Calculate the inhibition rate from the luminescence signal.
# (§4) to calculate the rate of inhibition of the cells by different concentrations of the compounds. The IC50 of the compound on cell activity inhibition was calculated by fitting a log(inhibitor) vs. response-Variable slope model to GraphPad Prism 6. The fitted equation was: Y=Bottom+(Top-Bottom)/(1+10^((Log IC50−X)*HillSlope)), where Y represents the rate of inhibition and X represents the concentration of the known compound after Log.
# [2] = system: BxPC3 cells; assay: Cell Titer-Glo anti-proliferation, BxPC3 cells; type: cell-based, human; details: 3 days, read-out: Anti-proliferative activity BxPC3 (IC50 class)
# Description: as §1, §2, §3, §4
# [3] = system: HT-29 cells; assay: Cell Titer-Glo anti-proliferation, HT-29 cells; type: cell-based, human; details: 3 days, read-out: Anti-proliferative activity HT-29 (IC50 class)
# Description: as §1, §2, §3, §4
Compound,IC50 [1] [µM],IC50 [2] [µM],IC50 [3] [µM]
"C=CCn1c(=O)c2cnc(Nc3ccc(N4C[C@@H]5C[C@H]4CN5C)cc3)nc2n1-c1ccc2c(n1)[C@@](C)(O)C1(CC2)CC1 (single isomer, unassigned) [Compound 45a]",0.1 to 1,1 to 2,0.1 to 1
"C=CCn1c(=O)c2cnc(Nc3ccc(N4C[C@@H]5C[C@H]4CN5C)cc3)nc2n1-c1ccc2c(n1)[C@](C)(O)C1(CC2)CC1 (single isomer, unassigned) [Compound 45b]",1 to 2,1 to 2,1 to 2
"C=CCn1c(=O)c2cnc(Nc3ccc(N4CCC(N(C)C)CC4)c(C)c3)nc2n1-c1ccc2c(n1)[C@@H](O)C1(CC2)CC1 (single isomer, unassigned) [Compound 48a]",0.1 to 1,0.1 to 1,0.1 to 1
"C=CCn1c(=O)c2cnc(Nc3ccc(N4CC5CC(C4)N5C(C)=O)cc3)nc2n1-c1ccc2c(n1)[C@@](C)(O)C1(CC2)CC1 (single isomer, unassigned) [Compound 50a]",0.1 to 1,0.1 to 1,0.1 to 1
"C=CCn1c(=O)c2cnc(Nc3ccc(N4CC5CC(C4)N5C(C)=O)cc3)nc2n1-c1ccc2c(n1)[C@](C)(O)C1(CC2)CC1 (single isomer, unassigned) [Compound 50b]",0.1 to 1,0.1 to 1,0.1 to 1
"C=CCn1c(=O)c2cnc(Nc3ccc(N4CCN(C)CC4)cc3)nc2n1-c1ccc2c(n1)[C@](O)(C(F)(F)F)C1(CC2)CC1 (single isomer, unassigned) [Compound 53a]",2 to 5,2 to 5,1 to 2
C=CCn1c(=O)c2cnc(Nc3ccc(N4CC5CC(C4)N5C)cc3)nc2n1-c1ccc2c(n1)[C@](C)(O)C1(CC2)CC1 [Compound 7b],0.1 to 1,0.1 to 1,0.1 to 1
C=CCn1c(=O)c2cnc(Nc3ccc(N4CC5CC(C4)N5C)cc3)nc2n1-c1ccc2c(n1)C(C)(O)C1(CC1)C2 (stereo not drawn) [Compound 13],0.1 to 1,0.1 to 1,0.1 to 1
C=CCn1c(=O)c2cnc(Nc3ccc(N4C[C@H]5C[C@@H]4CN5C)cc3)nc2n1-c1ccc2c(n1)C(O)(CC)C1(CC1)C2 (stereo partly drawn) [Compound 26],2 to 5,2 to 5,1 to 2
C=CCn1c(=O)c2cnc(Nc3ccc(N4CCN(C)CC4)c(F)c3)nc2n1-c1ccc2c(n1)C(O)(CC)C1(CC1)C2 (stereo not drawn) [Compound 33],2 to 5,2 to 5,1 to 2
C=CCn1c(=O)c2cnc(Nc3ccc(N4CCC5(CCN(C)CC5)CC4)cc3)nc2n1-c1ccc2c(n1)[C@@H](O)C1(CC2)CC1 [Compound 38a],1 to 2,1 to 2,0.1 to 1
C=CCn1c(=O)c2cnc(Nc3ccc(N4CCN(C)[C@H](C)C4)cc3)nc2n1-c1ccc2c(n1)C(O)(CC)C1(CC1)C2 (stereo partly drawn) [Compound 40],0.1 to 1,1 to 2,0.1 to 1
C=CCn1c(=O)c2cnc(Nc3ccc(N4CCC(N(C)C)CC4)c(C)c3)nc2n1-c1ccc2c(n1)C(C)(O)C1(CC2)CC1 (stereo not drawn) [Compound 52b],0.1 to 1,0.1 to 1,0.1 to 1

# The remaining lines, values ahead:
IC50 [1] [µM],IC50 [2] [µM],IC50 [3] [µM],Compound
2 to 5,2 to 5,1 to 2,"C=CCn1c(=O)c2cnc(Nc3ccc(N4CCC(N(C)C)CC4)cc3)nc2n1-c1ccc2c(n1)[C@](O)(C(F)(F)F)C1(CC2)CC1 (single isomer, unassigned) [Compound 54a]"
2 to 5,2 to 5,1 to 2,"C=CCn1c(=O)c2cnc(Nc3ccc(N4CCN(C(C)C)CC4)cc3)nc2n1-c1ccc2c(n1)C(O)C1(CC2)CC1 (single isomer, unassigned) [Compound 57a]"
2 to 5,1 to 2,0.1 to 1,"C=CCn1c(=O)c2cnc(Nc3ccc(N4CC5CN(C)CC5C4)cc3)nc2n1-c1ccc2c(n1)C(O)(C(F)(F)F)C1(CC2)CC1 (single isomer, unassigned) [Compound 58a]"
0.1 to 1,0.1 to 1,0.1 to 1,"C=CCn1c(=O)c2cnc(Nc3ccc(N4CC5CC(C4)N5CCF)cc3)nc2n1-c1ccc2c(n1)[C@](C)(O)C1(CC2)CC1 (single isomer, unassigned) [Compound 59a]"
0.1 to 1,0.1 to 1,0.1 to 1,"C=CCn1c(=O)c2cnc(Nc3ccc(N4CCC(N(C)C)C(F)C4)cc3)nc2n1-c1ccc2c(n1)C(C)(O)C1(CC2)CC1 (single isomer, unassigned) [Compound 60b]"
0.1 to 1,0.1 to 1,0.1 to 1,"C=CCn1c(=O)c2cnc(Nc3ccc(N4CCC5(CCN(C)CC5)CC4)c(C)c3)nc2n1-c1ccc2c(n1)C(O)C1(CC2)CC1 (single isomer, unassigned) [Compound 61a]"
1 to 2,1 to 2,0.1 to 1,"C=CCn1c(=O)c2cnc(Nc3ccc(N4CCC5(CCN(C)CC5)CC4)c(F)c3)nc2n1-c1ccc2c(n1)C(O)C1(CC2)CC1 (single isomer, unassigned) [Compound 62a]"
0.1 to 1,0.1 to 1,0.1 to 1,"C=CCn1c(=O)c2cnc(Nc3ccc(N4CC5CN(C)CC5C4)cc3)nc2n1-c1ccc2c(n1)C(O)C1(CC2)CC1 (single isomer, unassigned) [Compound 63a]"
1 to 2,1 to 2,0.1 to 1,"C=CCn1c(=O)c2cnc(Nc3ccc(N4C[C@H]5CN(C)C[C@H]5C4)cc3)nc2n1-c1ccc2c(n1)[C@H](O)C1(CC2)CC1 (single isomer, unassigned) [Compound 63b]"
0.1 to 1,0.1 to 1,0.1 to 1,"C=CCn1c(=O)c2cnc(Nc3ccc(N4CC5CC(C4)N5C)cc3)nc2n1-c1ccc2c(n1)[C@](O)(CC)C1(CC2)CC1 (single isomer, unassigned) [Compound 64a]"
0.1 to 1,0.1 to 1,0.1 to 1,"C=CCn1c(=O)c2cnc(Nc3ccc(N4CC5CC(C4)N5C)cc3)nc2n1-c1ccc2c(n1)[C@@](O)(CC)C1(CC2)CC1 (single isomer, unassigned) [Compound 64b]"
2 to 5,2 to 5,1 to 2,"C=CCn1c(=O)c2cnc(Nc3ccc(N4CCC(N(C)C)CC4)cc3)nc2n1-c1ccc2c(n1)C(O)C1(CC2)CC1 (single isomer, unassigned) [Compound 66a]"
2 to 5,2 to 5,1 to 2,"C=CCn1c(=O)c2cnc(Nc3ccc(N4CCN(C)[C@H](C)C4)cc3)nc2n1-c1ccc2c(n1)[C@@H](O)C1(CC2)CC1 (single isomer, unassigned) [Compound 68a]"
0.1 to 1,1 to 2,0.1 to 1,"C=CCn1c(=O)c2cnc(Nc3ccc(N4CCC5(CCN(C)CC5)CC4)cc3)nc2n1-c1ccc2c(n1)[C@](O)(CC)C1(CC2)CC1 (single isomer, unassigned) [Compound 69a]"
1 to 2,0.1 to 1,0.1 to 1,C=CCn1c(=O)c2cnc(Nc3ccc(N4CCN(C)CC4)cc3)nc2n1-c1ccc2c(n1)C(O)(C(F)(F)F)C1(CC2)CC1 (stereo not drawn) [Compound 53b]
0.1 to 1,0.1 to 1,0.1 to 1,C=CCn1c(=O)c2cnc(Nc3ccc(N4CCC(N(C)C)CC4)cc3)nc2n1-c1ccc2c(n1)C(O)(C(F)(F)F)C1(CC2)CC1 (stereo not drawn) [Compound 54b]

# Source: US20250304587A1, “WEE1 INHIBITOR, PREPARATION THEREFOR AND USE THEREOF” (JIANGSU TASLY DIYI PHARMACEUTICAL CO., LTD., priority 2022, published 2025)
